# Results taken from US4273866A, “Ligand analog-irreversible enzyme inhibitor conjugates and methods for use” (priority 1979, dated 1981).
# Target: acetylcholinesterase (T.californica) (Tetronarce californica, UniProt P04058)
# Test: Antibody modulation of inhibition by Compound II and reversal by cholylglycine
# Type: biochemical
# Procedure: Antibody against cholylglycine-bovine serum albumin (BSA) conjugates were raised in rabbits, and the rabbit serum obtained by conventional techniques. The anti-cholylglycine IgG fraction was obtained by ammonium sulfate fractionation and ion exchange chromatography. The concentration of antibody was not determined but was adjusted from a pooled fraction from the ion exchange column to give best modulation of inhibition by Compound II. […] The experiment is carried out on an ABA-100® model bichromatic analyzer (Abbott Laboratories, North Chicago, Illinois) and the following settings were used:
# The substrate solution and buffer are placed in the primary syringe of the dilution plate. The buffer is pH 7.0, 0.1 M potassium phosphate, 0.1% gelatin. The substrate is acetylthiocholine at 5.0×10^-4 M with DTNB at 1.6×10^-4 M as indicator. […] In all cases, the acetylcholinesterase (T.californica) concentration is approximately 2×10^-10 M and Compound II, the inhibitor, concentration is 10×10^-7 M. Where cholylglycine is added, the concentration in the sample cup is 10^-3 M. The sample cup contains pH 7.0, 0.1 M potassium phosphate buffer containing 0.1% gelatin plus the indicated components in the table: […]
# [1] = enzyme + the substance only, T = 0 (E alone .246)
# [2] = enzyme + the substance only, T = 13 min (E alone .237)
# [3] = enzyme + the substance only, T = 25 min (E alone .234)
# [4] = enzyme + the substance only, T = 36 min (E alone .230)
# Sequence of acetylcholinesterase (T.californica) (P04058 22-564): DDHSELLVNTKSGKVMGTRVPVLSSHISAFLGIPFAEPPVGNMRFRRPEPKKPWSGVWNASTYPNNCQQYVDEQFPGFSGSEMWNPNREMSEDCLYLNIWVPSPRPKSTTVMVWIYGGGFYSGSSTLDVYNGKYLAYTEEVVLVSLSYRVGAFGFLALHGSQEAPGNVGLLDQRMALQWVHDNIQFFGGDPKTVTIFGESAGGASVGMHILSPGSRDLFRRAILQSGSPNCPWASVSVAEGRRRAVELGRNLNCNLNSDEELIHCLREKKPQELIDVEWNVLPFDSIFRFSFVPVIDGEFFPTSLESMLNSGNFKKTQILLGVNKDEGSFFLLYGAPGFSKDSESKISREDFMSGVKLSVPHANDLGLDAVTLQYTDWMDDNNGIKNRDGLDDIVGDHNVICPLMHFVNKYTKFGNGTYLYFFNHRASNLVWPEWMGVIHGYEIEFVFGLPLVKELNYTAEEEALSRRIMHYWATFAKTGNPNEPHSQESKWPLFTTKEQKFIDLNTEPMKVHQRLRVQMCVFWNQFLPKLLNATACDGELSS
compound,measurement,setting,value
"C[C@H](CCC(=O)NCC(=O)O)[C@H]1CC[C@H]2[C@@H]3[C@H](O)C[C@@H]4C[C@H](O)CC[C@]4(C)[C@H]3C[C@H](O)[C@]12C [CG, cholylglycine, reference compound]",Change in Ad in 5 Minutes,"E + Ab + CG (10^-3 M), no inhibitor, T = 0",.225 Ad/5 Min.
same,Change in Ad in 5 Minutes,"E + Ab + CG (10^-3 M), no inhibitor, T = 13 min",.223 Ad/5 Min.
same,Change in Ad in 5 Minutes,"E + Ab + CG (10^-3 M), no inhibitor, T = 25 min",.216 Ad/5 Min.
same,Change in Ad in 5 Minutes,"E + Ab + CG (10^-3 M), no inhibitor, T = 36 min",.207 Ad/5 Min.
same,Change in Ad in 5 Minutes,[1],.236 Ad/5 Min.
same,Change in Ad in 5 Minutes,[2],.228 Ad/5 Min.
same,Change in Ad in 5 Minutes,[3],.220 Ad/5 Min.
same,Change in Ad in 5 Minutes,[4],.211 Ad/5 Min.
CCOP(=O)(OCCCCCNC(=O)CCCCCNC(=O)CC[C@@H](C)[C@H]1CC[C@H]2[C@@H]3[C@H](O)C[C@@H]4C[C@H](O[Si](C)(C)C(C)(C)C)CC[C@]4(C)[C@H]3C[C@H](O)[C@]12C)Oc1ccc2ccc[n+](C)c2c1 (stereo partly drawn) [Compound II],Change in Ad in 5 Minutes,"E + I + Ab + CG (10^-3 M), T = 0",.224 Ad/5 Min.
same,Change in Ad in 5 Minutes,"E + I + Ab + CG (10^-3 M), T = 13 min",.078 Ad/5 Min.
same,Change in Ad in 5 Minutes,"E + I + Ab + CG (10^-3 M), T = 25 min",.032 Ad/5 Min.
same,Change in Ad in 5 Minutes,"E + I + Ab + CG (10^-3 M), T = 36 min",.017 Ad/5 Min.
same,Change in Ad in 5 Minutes,"E + I + Ab, T = 0",.235 Ad/5 Min.
same,Change in Ad in 5 Minutes,"E + I + Ab, T = 13 min",.192 Ad/5 Min.
same,Change in Ad in 5 Minutes,"E + I + Ab, T = 25 min",.164 Ad/5 Min.
same,Change in Ad in 5 Minutes,"E + I + Ab, T = 36 min",.147 Ad/5 Min.
same,Change in Ad in 5 Minutes,"E + I + CG (10^-3 M), T = 0",.224 Ad/5 Min.
same,Change in Ad in 5 Minutes,"E + I + CG (10^-3 M), T = 13 min",.062 Ad/5 Min.
same,Change in Ad in 5 Minutes,"E + I + CG (10^-3 M), T = 25 min",.022 Ad/5 Min.
same,Change in Ad in 5 Minutes,"E + I + CG (10^-3 M), T = 36 min",.013 Ad/5 Min.
same,Change in Ad in 5 Minutes,[1],.226 Ad/5 Min.
same,Change in Ad in 5 Minutes,[2],.072 Ad/5 Min.
same,Change in Ad in 5 Minutes,[3],.025 Ad/5 Min.
same,Change in Ad in 5 Minutes,[4],.013 Ad/5 Min.
